Results reported in PMC11521309, “A novel 4-aminoquinoline chemotype with multistage antimalarial activity and lack of cross-resistance with PfCRT and PfMDR1 mutants” (PLOS Pathogens, 2024).
Several values for one entry are separate records, joined by “and”; a condition that tells them apart may be missing. Identical values can stand only once.

Legend:
[1] = test system: pool of barcoded P. falciparum lines (Dd2 and 3D7 backgrounds); test: Resistome growth assay, pool of 51 barcoded lines; type: cell-based, Plasmodium falciparum; settings: 3 x IC50 constant
Description: The resistome growth assay employs a parasite pool consisting of 51 barcoded lines including both Dd2 and 3D7 genetic backgrounds, with wild-type lines for both (S3 Table). Most lines used were derived from in vitro resistance selection experiments, with others having been CRISPR edited. All lines were barcoded via CRISPR editing of a 101bp barcode cassette into the non-essential pfpare locus (PF3D7_0709700). Parasites were cultured in RPMI-1640 medium supplemented with HEPES (5.94 g/L), NaHCO3 (2.1 g/L), glutamax (1×), hypoxanthine (50 mg/L), gentamycin ([…]), and AlbumaxII (5 g/L) at a […]. Parasite growth was monitored over 14 days by flow cytometry (Cytoflex, Beckman Coulter) by staining with 1× SYBR Green and 0.2 μM MitoTracker Deep Red. Parasitemia adjustments were made to maintain a healthy range of <5% parasitemia. Parasite cultures were harvested at day 14 and lysed by saponin (0.05%), with pellets washed twice with PBS. Barcodes were PCR amplified using 5 μL of parasite pellet and sequenced by Illumina amplicon sequencing.

COS-7 cells = test: MTT cytotoxicity assay, 72 h; type: cell-based, monkey
Description: (§1) Human hepatoma (HepG2) and fibroblast-like monkey kidney cells (COS-7) were cultured in Dulbecco’s Modified Eagle Medium supplemented with 10% heat-inactivated fetal bovine serum and gentamycin (40 mg/L) at 37°C in a 5% CO2 atmosphere. Cytotoxicity of test compounds was measured by metabolic reduction of mitochondrial enzymes using the MTT assay (3-[4,5-dimethyl-thiazol-2-yl]-2,5-diphenyltetrazolium chloride). Cells were seeded at 10^5 cells/well in 96-well plates and incubated for 72 hours in the presence of a 2-fold 12-point serial dilution of drugs along with drug-free controls. After adding 15 μL of MTT (5 mg/mL) to the wells, plates were centrifuged at 317g for 5 minutes and the pellet was resuspended in isopropanol. Absorbance was measured at 570 nm (CLARIOStar, Labtech BMG). Cell viability was determined by formazan production, and was expressed as a percentage of untreated control wells.

[2] = MTT cytotoxicity assay, 72 h; type: cell-based, monkey; settings: monkey, COS-7 cells; MTT, 72 h, N = 3
Description: as §1

[3] = test system: P. falciparum 3D7 ABS parasites; test: ABS parasite survival assay, 72 h, flow cytometry; type: cell-based; settings: Plasmodium falciparum, 3D7, ABS parasites, N = 3; read-out: IC50 3D7
Description: (§2) P. falciparum ABS parasites were cultured at 3% hematocrit in human O^+ RBCs in RPMI-1640 media supplemented with 25 mM HEPES, 50 mg/L hypoxanthine, 2 mM L-glutamine, 0.21% sodium bicarbonate, 0.5% (w/v) AlbuMAXII (Invitrogen) and 10 μg/mL gentamycin. Culture flasks were kept in modular incubator chambers (Billups-Rothenberg) in a 5% O2, 5% CO2, and 90% N2 atmosphere at 37°C. Synchronized ring-stage parasites were obtained by two consecutive rounds of treatment with 5% D-sorbitol in 48-hour intervals. […] This was done by exposing cultures at 1% hematocrit and 0.3% parasitemia in 96-well plates in the presence of drugs in a two-fold 10 or 12-point serial dilution in duplicate along with drug-free controls. After a 72-hour incubation, parasite survival was assessed by flow cytometry on an iQue flow cytometer (Sartorius) using SYBR Green and MitoTracker Deep Red FM (Life Technologies) as nuclear stain and vital dye, respectively. Parasite survival was determined as a percentage relative to drug-free control. IC50 values were interpolated from log concentration versus response curves in Prism 9 (GraphPad Prism Software Inc.).

[4] = test system: P. falciparum Dd2 ABS parasites; test: ABS parasite survival assay, 72 h, flow cytometry; type: cell-based; settings: Plasmodium falciparum, DD2, ABS parasites, N = 3; read-out: IC50 Dd2
Description: as §2

[5] = MTT cytotoxicity assay, 72 h; type: cell-based, Human; settings: human, HepG2 cells; MTT, 72 h, N = 3
Description: as §1

HepG2 cells = test: MTT cytotoxicity assay, 72 h; type: cell-based, Human
Description: as §1

P. falciparum NF10^NF = test system: P. falciparum NF10^NF; set-up: method as in ref 1 Veiga et al. 2016; settings: means ± SEM, N 6; ref 1 Veiga et al. 2016; read-out: IC50 NF10NF; cited from earlier work
P. falciparum Dd2^H97Y = test system: P. falciparum Dd2^H97Y; set-up: key: S: sensitive; R: resistant; settings: ref [19],[20],[51]; cited from earlier work
P. falciparum Dd2^M343L = test system: P. falciparum Dd2^M343L; set-up: key to Phenotype, Dd2^M343L: S: sensitive; R: resistant; settings: cited from earlier work
P. falciparum Dd2^I218F = test system: P. falciparum Dd2^I218F; set-up: key to Phenotype, Dd2^I218F: S: sensitive; R: resistant; settings: cited from earlier work
P. falciparum Dd2^T93S = test system: P. falciparum Dd2^T93S; set-up: key to Phenotype, Dd2^T93S: S: sensitive; R: resistant; settings: cited from earlier work
P. falciparum Dd2^Dd2 = test system: P. falciparum Dd2^Dd2; set-up: key to Phenotype, Dd2^Dd2: S: sensitive; R: resistant; settings: cited from earlier work
P. falciparum Dd2^G353V = test system: P. falciparum Dd2^G353V; set-up: key to Phenotype, Dd2^G353V: S: sensitive; R: resistant; settings: cited from earlier work
P. falciparum 7G8^C350R = test system: P. falciparum 7G8^C350R; set-up: key to Phenotype, 7G8^C350R: S: sensitive; R: resistant; settings: cited from earlier work
P. falciparum 7G8^7G8 = test system: P. falciparum 7G8^7G8; set-up: key to Phenotype, 7G8^7G8: S: sensitive; R: resistant; settings: cited from earlier work
P. falciparum 7G8^F145I = test system: P. falciparum 7G8^F145I; set-up: key to Phenotype, 7G8^F145I: S: sensitive; R: resistant; settings: cited from earlier work
P. falciparum Dd2^3D7 = test system: P. falciparum Dd2^3D7; set-up: key: S: sensitive; R: resistant; settings: ref [19],[20],[51]; cited from earlier work
P. falciparum Dd2^F145I = test system: P. falciparum Dd2^F145I; set-up: key to Phenotype, Dd2^F145I: S: sensitive; R: resistant; settings: cited from earlier work
P. falciparum NF10^YF = test system: P. falciparum NF10^YF; set-up: method as in ref 1 Veiga et al. 2016; settings: means ± SEM, N 6; ref 1 Veiga et al. 2016; read-out: IC50 NF10YF; cited from earlier work
[6] = test system: P. berghei PbGFP-Luccon liver stage; test: In vitro inhibition of liver stage infection of Huh-7 cells, bioluminescence; type: cell-based, Plasmodium berghei; settings: 10 nM, positive control
Description: In vitro inhibition of Plasmodium liver stage infection was assessed using bioluminescence data from Huh-7 cells infected with a firefly-luciferase-expressing P. berghei line, PbGFP-Luccon, in the presence of various compound concentrations. […] One day before drug treatment and infection, 10^4 Huh-7 cells/well were seeded in 96-well plates. The medium was then replaced by an infection medium (culture medium supplemented with 50 μg/mL gentamycin and 0.8 μg/mL amphotericin B) containing desired concentrations of test compounds. Fresh sporozoites recovered from salivary glands of infected female Anopheles stephensi mosquitoes were added to seeded Huh-7 cells at a 1:1 proportion, followed by centrifugation at 1700g for 5 minutes and incubation for 46 hours at 37°C under 5% CO2. Compound toxicity against Huh-7 cells was assessed by measuring […] using the Alamar Blue assay (Invitrogen). IC50 values were calculated using nonlinear regression analysis (GraphPad Prism version 9).

PfCRT 7G8 isoform = test: [3H]CQ uptake in PfCRT-containing proteoliposomes; type: biochemical, Plasmodium falciparum; settings: 1 μM; PfCRT 7G8, 7G8^F145I and 7G8^C350R
Description: Purified PfCRT variants were reconstituted in preformed liposomes made of E. coli total lipids:cholesteryl hemisuccinate 97:3 (w/w) at a protein-to-lipid ratio of 1:150 (w/w). The lumen of the proteoliposomes was composed of 100 mM KPi, pH 7.5, and 2 mM β-mercaptoethanol. Uptake of [^3H]CQ (1 Ci/mmol) or [^3H]PPQ (1 Ci/mmol) was performed by diluting PfCRT-containing proteoliposomes (30 ng of PfCRTper reaction) in an uptake buffer containing 100 mM Tris/MES, pH 5.5, in the presence or absence of 1 μM of the test compounds. In addition, 1 μM valinomycin was added to the reaction to generate a K^+ diffusion potential-driven membrane potential (ΔΨ). […] Filters were dried and incubated in a scintillation cocktail, and the radioactivity captured on the filters was counted in a Hidex SL300 scintillation counter. The efficiency of detection was calculated with a standard curve of known concentrations of each radiolabeled compound, and this was used to transform decays per minute (dpm) into pmol. The nonspecific interaction of each compound with nitrocellulose filters was determined by measuring mock uptake in the absence of liposomes or proteoliposomes. These values (determined for each experiment) were used to calculate background uptake in liposomes or proteoliposomes. […]

[7] = test system: P. falciparum NF54-Pfs16-GFP-Luc stage IV-V gametocytes; test: Mature gametocyte (stages IV-V) viability, luciferase, 48 h; type: cell-based, Plasmodium falciparum; settings: 5 μM
Description: P. falciparum NF54-Pfs16-GFP-Luc (MRA-1217), a highly gametocyte-producing strain, was cultured following standard procedures. NF54-Luc ABS parasites were sorbitol-synchronized as previously described and cultured to reach 8–10% parasitemia as mature trophozoites prior to starting gametogenesis induction via nutrient deficit stress. Briefly, stress was induced by replacing only 40% of the culture medium and returning cultures to a 37°C incubation. Cultures were treated with 50 mM N-acetylglucosamine for 10 days to remove ABS parasites. Mature gametocytes (stages IV-V) were isolated using magnetic columns and incubated at 2% gametocytemia and 1.5% hematocrit in 96-well plates containing the test compounds for 48 hours at 37°C, following standard P. falciparum culturing conditions. Methylene blue was used as a gametocytocidal control alongside drug-free wells. Luciferase activity was assessed by adding 40 μL of luciferin substrate (Promega) to 40 μL of parasite lysates and detecting bioluminescence at an integration constant of 10s with the BioTek Cytation 5 Cell Imaging Multimode Reader.

[8] = Dd2M343L, mean ± SEM, ref 1 (Ross et al., 2018)
[9] = Dd2I218F, mean ± SEM, ref 2 (Dhingra et al., 2019)
[10] = Dd2T93S, mean ± SEM, ref 2 (Dhingra et al., 2019)
[11] = Dd2Dd2, mean ± SEM, ref 1 (Ross et al., 2018)
[12] = Dd2G353V, mean ± SEM, ref 1 (Ross et al., 2018)
[13] = Dd2F145I, mean ± SEM, ref 1 (Ross et al., 2018)

## CNC(=O)c1ccc(-c2cnc3cnc(C(=O)N(C)c4ccc(Cl)cc4)cn23)cc1 [KDU691]
[1]
  recrudescence of barcoded pool after: 9 days and 7 days

## COc1ccc(Nc2ccnc3ccccc23)cc1 [LDT-627]
COS-7 cells
  SI (CC50 COS-7 / IC50 3D7): 22.1
[2]
  CC50 at 72 h: 54500 ± 16700 nM
[3]
  IC50: 2500 ± 800 nM
[4]
  IC50: 2000 ± 200 nM
[5]
  CC50 at 72 h: 12700 ± 6400 nM
HepG2 cells
  SI (CC50 HepG2 / IC50 3D7): 5.2

## Clc1ccc2c(N3CCN(CCCN4CCN(c5ccnc6cc(Cl)ccc56)CC4)CC3)ccnc2c1 [PPQ, piperaquine]
P. falciparum NF10^NF
  IC50: 35.4 ± 2.1 nM
P. falciparum Dd2^H97Y
  Phenotype, Dd2^H97Y: R
P. falciparum Dd2^M343L; [8]
  IC50: 37.6 ± 4.8 nM
  IC90: 93.1 ± 9.7 nM
P. falciparum Dd2^M343L; ref [19],[20],[51]
  Phenotype, Dd2^M343L: R
P. falciparum Dd2^I218F; [9]
  IC50: 42 ± 20.8 nM
  IC90: 8600 ± 1660 nM
P. falciparum Dd2^I218F; ref [19],[20],[51]
  Phenotype, Dd2^I218F: R
P. falciparum Dd2^T93S; [10]
  IC50: 31.9 ± 5.6 nM
  IC90: 6880 ± 3420 nM
P. falciparum Dd2^T93S; ref [19],[20],[51]
  Phenotype, Dd2^T93S: R
P. falciparum Dd2^Dd2; [11]
  IC50: 27.6 ± 3.1 nM
  IC90: 50.2 ± 4.2 nM
P. falciparum Dd2^Dd2; ref [19],[20],[51]
  Phenotype, Dd2^Dd2: S
P. falciparum Dd2^G353V; [12]
  IC50: 31.8 ± 7.4 nM
  IC90: 3740 ± 1980 nM
P. falciparum Dd2^G353V; ref [19],[20],[51]
  Phenotype, Dd2^G353V: R
P. falciparum 7G8^C350R; 7G8C350R, mean ± SEM, ref 3 (Kim et al., 2019)
  IC50: 36.5 ± 2 nM
P. falciparum 7G8^C350R; ref [19],[20],[51]
  Phenotype, 7G8^C350R: R
P. falciparum 7G8^7G8; 7G87G8, mean ± SEM, ref 3 (Kim et al., 2019)
  IC50: 21.4 ± 1 nM
P. falciparum 7G8^7G8; ref [19],[20],[51]
  Phenotype, 7G8^7G8: S
P. falciparum 7G8^F145I; 7G8F145I, mean ± SEM, ref 3 (Kim et al., 2019)
  IC50: 28.7 ± 1 nM
P. falciparum 7G8^F145I; ref [19],[20],[51]
  Phenotype, 7G8^F145I: R
P. falciparum Dd2^3D7
  Phenotype, Dd2^3D7: S
P. falciparum Dd2^F145I; [13]
  IC50: 65.3 ± 3.1 nM
  IC90: 5770 ± 666 nM
P. falciparum Dd2^F145I; a: sensitized to CQ compared to the parental line but not fully sensitive, ref [19],[20],[51]
  Phenotype, Dd2^F145I: R
P. falciparum NF10^YF
  IC50: 41.8 ± 3.4 nM

## O=C1C(O)=C([C@H]2CC[C@H](c3ccc(Cl)cc3)CC2)C(=O)c2ccccc21 [atovaquone]
[6]
  effect on hepatic infection: almost completely ablated infection
PfCRT 7G8 isoform
  competitive inhibition of [3H]CQ or [3H]PPQ transport: No competitive inhibition

## CN(C)c1ccc2nc3ccc(=[N+](C)C)cc-3sc2c1 [methylene blue]
[7]; mean, N = 3
  % Inhibition of viability, mature gametocytes: 100%
[7]; mean, N = 3, listed as MB
  % Inhibition of viability, mature gametocytes: 100.00%
[7]; single replicates
  % Inhibition of viability, mature gametocytes: 100.00%

## CCc1nc(N)nc(N)c1-c1ccc(Cl)cc1 [pyrimethamine]
PfCRT 7G8 isoform
  competitive inhibition of [3H]CQ or [3H]PPQ transport: No competitive inhibition
